This note sets out measurements from ChEMBL document CHEMBL2163286, “1,2,3,4-tetrahydroquinoline-based selective human neuronal nitric oxide synthase (nNOS) inhibitors: lead optimization studies resulting in the identification of N-(1-(2-(methylamino)ethyl)-1,2,3,4-tetrahydroquinolin-6-yl)thiophene-2-carboximidamide as a preclinical development candidate” (J Med Chem, 2012).

Structures are written as SMILES.

Series [1] concerns the target Cytochrome P450 2C9 (Homo sapiens, UniProt P11712). Put plainly: Inhibition of human CYP2C9. In kind it is ADME.
Series [2] in a line: Half life in rat at 10 mg/kg, po. Set-up: dose 10 mg/kg, route oral. The note with it: in vivo. In kind it is ADME, organism-based.
Series [3] concerns the target Cytochrome P450 2C19 (Homo sapiens, UniProt P33261). Put plainly: Inhibition of human CYP2C19. Type of series: ADME.
The nature of series [4]: AUC in rat at 3 mg/kg, iv or 10 mg/kg, po. Type of series: ADME, organism-based. To be noted: plasma.
Series [5] in a line: Plasma protein binding in human plasma. In kind it is ADME, cell-free. To be noted: read-out: PPB (converted).
Series [6] deals with Cytochrome P450 3A4 (Homo sapiens, UniProt P08684). Put plainly: Inhibition of human CYP3A4. Type of series: ADME.
Series [7] concerns the target T1, Muscarinic acetylcholine receptor M4 (Homo sapiens, UniProt P08173).
T1 sequence (P08173 whole entry): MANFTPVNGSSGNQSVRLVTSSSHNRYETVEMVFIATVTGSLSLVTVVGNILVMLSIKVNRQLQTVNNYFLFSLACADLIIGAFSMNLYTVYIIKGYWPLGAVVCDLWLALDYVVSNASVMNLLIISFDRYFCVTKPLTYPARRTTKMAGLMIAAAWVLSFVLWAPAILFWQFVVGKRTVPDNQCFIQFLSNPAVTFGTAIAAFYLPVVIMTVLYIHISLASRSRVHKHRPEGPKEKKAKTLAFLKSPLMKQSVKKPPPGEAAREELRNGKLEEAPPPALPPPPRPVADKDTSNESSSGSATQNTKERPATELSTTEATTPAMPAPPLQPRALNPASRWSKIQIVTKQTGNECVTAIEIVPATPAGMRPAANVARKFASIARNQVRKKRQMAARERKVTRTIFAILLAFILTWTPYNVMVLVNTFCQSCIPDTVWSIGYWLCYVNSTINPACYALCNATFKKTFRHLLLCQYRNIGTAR
Put plainly: Inhibition of human muscarinic M4 receptor by cell based functional assay.

Series [8] can be described thus: Volume of distribution at steady state in rat at 3 mg/kg, iv or 10 mg/kg, po. In kind it is ADME, organism-based. The note with it: in vivo, read-out: Vdss.
The nature of series [9]: Plasma clearance in rat at 3 mg/kg, iv or 10 mg/kg, po. In kind it is ADME, organism-based.
Series [10] concerns the target T2, Cytochrome P450 1A2 (Homo sapiens, UniProt P05177).
T2 sequence (P05177 whole entry): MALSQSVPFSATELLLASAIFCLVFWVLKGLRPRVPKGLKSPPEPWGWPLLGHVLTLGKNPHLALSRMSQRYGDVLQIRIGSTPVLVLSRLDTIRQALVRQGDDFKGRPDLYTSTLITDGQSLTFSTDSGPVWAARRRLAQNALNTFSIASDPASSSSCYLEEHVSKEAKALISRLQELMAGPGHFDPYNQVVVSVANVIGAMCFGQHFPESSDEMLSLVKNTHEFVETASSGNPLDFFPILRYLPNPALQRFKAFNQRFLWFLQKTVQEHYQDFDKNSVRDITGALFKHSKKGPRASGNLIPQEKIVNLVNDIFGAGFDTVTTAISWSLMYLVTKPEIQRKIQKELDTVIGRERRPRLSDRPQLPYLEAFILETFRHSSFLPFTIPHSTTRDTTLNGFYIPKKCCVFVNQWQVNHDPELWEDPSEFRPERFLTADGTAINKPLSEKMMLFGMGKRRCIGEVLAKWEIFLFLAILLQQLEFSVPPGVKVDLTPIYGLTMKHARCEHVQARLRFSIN
Briefly: Inhibition of human CYP1A2. In kind it is ADME.

Series [11] has as its target Cytochrome P450 2D6 (Homo sapiens, UniProt P10635). Briefly: Inhibition of human CYP2D6. Type of series: ADME.
Series [12] has as its target T3, Muscarinic acetylcholine receptor M2 (Homo sapiens, UniProt P08172).
T3 sequence (P08172 whole entry): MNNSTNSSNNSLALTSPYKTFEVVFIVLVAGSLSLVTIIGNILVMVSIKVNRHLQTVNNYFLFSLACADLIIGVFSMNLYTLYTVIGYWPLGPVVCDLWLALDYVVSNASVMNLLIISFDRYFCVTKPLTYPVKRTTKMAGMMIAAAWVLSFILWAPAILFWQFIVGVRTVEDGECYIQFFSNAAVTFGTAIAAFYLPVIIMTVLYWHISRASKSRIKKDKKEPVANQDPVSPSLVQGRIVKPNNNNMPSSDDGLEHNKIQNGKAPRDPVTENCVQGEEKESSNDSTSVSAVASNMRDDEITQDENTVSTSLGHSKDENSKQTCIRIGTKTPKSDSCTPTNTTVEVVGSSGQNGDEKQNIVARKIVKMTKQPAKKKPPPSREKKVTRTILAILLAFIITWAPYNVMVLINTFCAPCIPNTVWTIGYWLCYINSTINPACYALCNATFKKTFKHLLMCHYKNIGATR
Put plainly: Inhibition of human muscarinic M2 receptor by cell based functional assay.

The nature of series [13]: Tmax in rat at 3 mg/kg, iv or 10 mg/kg, po. In kind it is ADME, organism-based. To be noted: in vivo.
Series [14] can be described thus: Cmax in rat at 3 mg/kg, iv or 10 mg/kg, po. Type of series: ADME, organism-based. To be noted: in vivo.
For series [15], the target named is Muscarinic acetylcholine receptor M3 (Homo sapiens, UniProt P20309). Put plainly: Inhibition of human muscarinic M3 receptor by cell based functional assay.
The target in series [16] is T4, Muscarinic acetylcholine receptor M1 (Homo sapiens, UniProt P11229).
T4 sequence (P11229 whole entry): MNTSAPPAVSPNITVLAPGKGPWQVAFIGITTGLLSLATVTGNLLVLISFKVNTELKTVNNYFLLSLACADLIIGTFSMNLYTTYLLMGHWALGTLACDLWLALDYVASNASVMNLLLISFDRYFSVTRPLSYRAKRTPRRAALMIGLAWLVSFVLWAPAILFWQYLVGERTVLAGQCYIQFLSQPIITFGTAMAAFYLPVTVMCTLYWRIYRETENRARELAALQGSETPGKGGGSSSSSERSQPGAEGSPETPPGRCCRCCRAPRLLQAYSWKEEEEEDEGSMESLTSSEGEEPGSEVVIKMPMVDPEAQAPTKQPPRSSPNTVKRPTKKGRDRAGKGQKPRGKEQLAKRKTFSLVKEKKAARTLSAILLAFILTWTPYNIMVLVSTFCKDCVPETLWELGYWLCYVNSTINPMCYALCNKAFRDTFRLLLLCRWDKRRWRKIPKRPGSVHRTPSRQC
Put plainly: Inhibition of human muscarinic M1 receptor by cell based functional assay.

Series [17] can be described thus: Oral bioavailability life in rat at 10 mg/kg. The note with it: in vivo. In kind it is ADME, organism-based.

Sequence of Muscarinic acetylcholine receptor M3 (P20309 whole entry): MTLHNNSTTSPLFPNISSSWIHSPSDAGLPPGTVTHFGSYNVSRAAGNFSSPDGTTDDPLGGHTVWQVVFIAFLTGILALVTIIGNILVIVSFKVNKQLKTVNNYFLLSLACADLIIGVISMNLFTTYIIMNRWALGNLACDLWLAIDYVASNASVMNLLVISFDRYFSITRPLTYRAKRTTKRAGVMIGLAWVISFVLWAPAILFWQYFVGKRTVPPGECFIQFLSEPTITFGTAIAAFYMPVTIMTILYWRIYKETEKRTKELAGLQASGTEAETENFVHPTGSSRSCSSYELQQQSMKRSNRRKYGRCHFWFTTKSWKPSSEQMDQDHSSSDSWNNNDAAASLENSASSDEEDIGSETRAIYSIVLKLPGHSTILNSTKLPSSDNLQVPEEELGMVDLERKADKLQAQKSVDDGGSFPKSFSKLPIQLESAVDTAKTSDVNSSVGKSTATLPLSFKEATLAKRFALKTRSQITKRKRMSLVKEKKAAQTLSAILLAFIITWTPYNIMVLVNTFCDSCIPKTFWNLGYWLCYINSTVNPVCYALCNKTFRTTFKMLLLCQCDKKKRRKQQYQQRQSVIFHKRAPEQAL
Sequence of Cytochrome P450 2C9 (P11712 whole entry): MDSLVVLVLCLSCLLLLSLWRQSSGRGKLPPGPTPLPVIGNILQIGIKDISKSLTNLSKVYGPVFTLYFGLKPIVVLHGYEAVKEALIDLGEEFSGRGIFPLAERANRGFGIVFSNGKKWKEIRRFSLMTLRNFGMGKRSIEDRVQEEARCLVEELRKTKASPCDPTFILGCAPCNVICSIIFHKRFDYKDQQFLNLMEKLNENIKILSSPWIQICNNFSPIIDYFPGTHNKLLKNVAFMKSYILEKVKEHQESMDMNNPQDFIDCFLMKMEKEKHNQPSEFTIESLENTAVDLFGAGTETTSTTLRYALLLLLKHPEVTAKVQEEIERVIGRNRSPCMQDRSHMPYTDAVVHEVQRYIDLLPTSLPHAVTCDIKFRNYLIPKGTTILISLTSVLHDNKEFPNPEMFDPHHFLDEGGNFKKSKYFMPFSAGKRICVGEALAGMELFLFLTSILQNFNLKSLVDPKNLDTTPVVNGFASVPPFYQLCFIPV
Sequence of Cytochrome P450 3A4 (P08684 whole entry): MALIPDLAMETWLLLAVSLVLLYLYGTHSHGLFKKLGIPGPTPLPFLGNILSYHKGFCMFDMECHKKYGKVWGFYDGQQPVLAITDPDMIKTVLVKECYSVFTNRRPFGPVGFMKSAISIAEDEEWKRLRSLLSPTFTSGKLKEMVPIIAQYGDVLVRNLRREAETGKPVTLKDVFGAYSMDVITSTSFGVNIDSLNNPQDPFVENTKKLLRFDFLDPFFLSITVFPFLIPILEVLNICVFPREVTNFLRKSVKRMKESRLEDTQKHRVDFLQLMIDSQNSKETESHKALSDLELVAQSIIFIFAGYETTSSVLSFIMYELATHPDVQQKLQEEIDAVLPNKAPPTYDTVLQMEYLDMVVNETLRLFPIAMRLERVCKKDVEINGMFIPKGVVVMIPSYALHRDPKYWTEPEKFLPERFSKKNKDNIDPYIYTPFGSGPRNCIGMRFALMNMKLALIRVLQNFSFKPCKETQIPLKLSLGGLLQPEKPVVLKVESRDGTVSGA
Sequence of Cytochrome P450 2D6 (P10635 whole entry): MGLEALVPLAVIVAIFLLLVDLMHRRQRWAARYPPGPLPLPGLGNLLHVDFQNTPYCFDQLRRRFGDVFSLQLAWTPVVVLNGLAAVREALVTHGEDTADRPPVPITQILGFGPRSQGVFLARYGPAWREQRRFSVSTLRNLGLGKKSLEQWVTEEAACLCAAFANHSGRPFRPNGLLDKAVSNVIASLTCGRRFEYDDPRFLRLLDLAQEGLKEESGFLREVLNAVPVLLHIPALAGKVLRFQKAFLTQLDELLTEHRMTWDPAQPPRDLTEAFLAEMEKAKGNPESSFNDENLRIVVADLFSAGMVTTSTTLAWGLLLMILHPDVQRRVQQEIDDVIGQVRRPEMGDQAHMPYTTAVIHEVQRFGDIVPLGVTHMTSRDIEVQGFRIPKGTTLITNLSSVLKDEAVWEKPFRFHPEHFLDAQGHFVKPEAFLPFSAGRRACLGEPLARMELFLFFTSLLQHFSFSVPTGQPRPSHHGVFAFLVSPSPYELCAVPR
Sequence of Cytochrome P450 2C19 (P33261 whole entry): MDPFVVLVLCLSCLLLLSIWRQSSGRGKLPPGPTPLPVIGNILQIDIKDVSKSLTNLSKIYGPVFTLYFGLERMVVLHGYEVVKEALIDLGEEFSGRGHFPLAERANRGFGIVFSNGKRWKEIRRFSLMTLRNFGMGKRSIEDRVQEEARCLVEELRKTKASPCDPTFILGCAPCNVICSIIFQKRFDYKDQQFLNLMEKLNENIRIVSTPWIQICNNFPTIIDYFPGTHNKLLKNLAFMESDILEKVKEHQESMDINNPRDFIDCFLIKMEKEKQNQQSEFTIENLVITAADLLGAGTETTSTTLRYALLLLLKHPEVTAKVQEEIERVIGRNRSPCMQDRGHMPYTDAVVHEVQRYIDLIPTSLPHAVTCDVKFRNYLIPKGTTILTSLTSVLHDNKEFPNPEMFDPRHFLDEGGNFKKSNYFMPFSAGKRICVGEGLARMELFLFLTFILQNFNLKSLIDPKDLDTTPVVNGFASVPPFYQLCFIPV

As a reminder, the half-life is how long it takes for the measured level to halve. High values mean slow loss, low ones fast loss. As usually defined, the AUC is the area under the concentration-time curve, a measure of exposure. Lower therefore signals low exposure. By EC50 is commonly meant the concentration giving half of the maximal effect. Low readings indicate a more potent agent, high ones a less potent agent. Usually Tmax stands for the time at which the peak concentration occurs. As usually defined, the Cmax is the peak of the concentration-time curve. One may read the bioavailability as dose-corrected exposure relative to a reference, in per cent. Read a low bioavailability as poor availability. For `CNCCN1CCCc2cc(NC(=N)c3cccs3)ccc21`, the “inhibition (INH)” value in series [1], in series [3], in [6], in [10] and in [11] was “Not Active” each time. The same compound gave a half-life in series [2] of 486 min. Further, the area under the curve (AUC) in [4] worked out at 1160 ng·h/mL. Moreover, the fraction unbound in [5] was 0.6. The 50% effective concentration (EC50) in series [7], in series [12], in series [15] and in series [16] was above 40 µM in each case. For the same compound, in series [8], the Vd turned out to be 83.9 L/kg. The clearance in [9] was 87.7 mL/min/kg. Besides, in series [13], the time to peak (Tmax) stood at 2 h. Besides, in series [14], the Cmax stood at 880 nM. For the same compound, in series [17], the bioavailability turned out to be 59.9%.
